Test results from patent publication US8168596B2, “Use of cycloartane compounds for treating arthritis” (NuLiv Holding Inc., priority 2008, dated 2012).

Columns and labels:
[1] = test system: HCH cells; assay: Glucosamine uptake assay; type: cell-based, human; details: astragalosides 0.1 μM, 24 h, Ctrl 1.00
Experimental: The HCHs were cultured as described above in Example 7. For the glucosamine uptake test, HCH cells were seeded into 24-well plate at a density of 3×10^4 cells per well and cultured for 24 hours. The cells were then treated in the absence (solvent control) or presence of the astragalosides (0.1 μM) or Astragalus membranaceous extracts (1.0 μg/mL) for another 24 hours. The treated cells were then washed twice with PBS and incubated in glucose and serum free medium (GSFM). After 2 hours, the cells were replaced with fresh GSFM containing 0.2 μCi of [^14C]-Glucosamine (American Radiolabelled Chemicals Inc, ARC, St. Louis, Mo., USA). At the designated time interval, the cells were washed twice with GSFM containing cold glucosamine and then lysed in 200 μL of 2% SDS. Cell lysates were centrifuged at 15000 g for 15 min. Intracellular uptaken glucosamine was determined by transferring 10 μL of the cell lysate to filter-bottomed UniFilter plates (Perkim-Elmer) and counting. The samples were measured for their protein concentration using the BCA protein assay kit as described above. The amount of glucosamine accumulated in the cells was calculated and normalized to protein concentration and uptake rate was expressed as counts per minute per microgram of cell protein (cpm/min/μg).

[2] = test system: HCH cells; assay: Proline uptake assay; type: cell-based, human; details: astragalosides 0.1 μM, 24 h, Ctrl 1.00
Experimental: The proline uptake assay was carried out as described below, generally in accordance with the method disclosed in Biochim Biophys Acta. 1104:283-292, 1992, the contents of which are incorporated by reference. Briefly, HCH cells were seeded into a 24-well plate at a density of 3×10^4 cells per well and cultured for 24 hours. The cells were then treated in the absence (solvent control) or presence of the astragalosides (0.1 μM) or Astragalus membranaceous extracts (1.0 μg/mL) for another 24 hours. The treated cells were then washed once with PBS and incubated in amino acid free medium (AAFM) for another 30 min. The treated cells were then replaced with fresh AAFM containing 50 μg/mL of ascorbate and total of 0.5 mM of L-proline containing 1 μCi [^3H] Proline (American Radiolabelled Chemicals Inc, ARC, St. Louis, Mo., USA). At designated time intervals, the cells were washed with AAFM containing cold proline and then lysed in 200 μL of 2% SDS. Cell lysates were centrifuged at 15000 g for 15 min. Intracellular proline uptaken by the cells was determined by transferring 10 μL of the cell lysate to filter-bottomed UniFilter plates (Perkim-Elmer) and counting. The samples were measured for their protein concentrations using the BCA protein assay kit as described above. The amount of proline accumulated in the cells was calculated and normalized to protein concentration. And cellular uptake rate was expressed as nmole of L-proline per minute per […] of cell protein (nmole/min/μg).

[3] = test system: MMP-13; assay: Western blot of MMP-13 in pre-treated human chondrocytes (HCHs); type: cell-based; details: 0.1 μM, 48 h
[4] = test system: MMP-1; assay: Western blot of MMP-1 in PMA- or IL-1β-pre-treated SW1353 cells (Example 6); type: cell-based, human; details: 48 h
Experimental: (§1) The cells were then plated on 6-cm dishes at a density of 1×10^6 cells/dish for 24 hours prior to any treatment. At the beginning of the experiment, the cells were pre-treated with 100 ng/mL PMA or 10 ng/mL IL-1β for 24 hours. The cells were then treated 0.1 μM Dexamethasone with, various astragaloside compounds (0.1 μM) or extracts of Astragalus membranaceous (1 μg/mL) at indicated dosages for another 48 hours. For control sample, 0.1% DMSO was used as a negative control for these experiments. The conditioned culture mediums were then centrifuged, 2-fold concentrated and collected for assay of collagens or MMPs secreted into the culture medium.
(§2) Western blotting analysis was carried out on both cultured medium and cell lysates, as follows. The cells were washed and lysed in 0.2 mL of lysis buffer (1% NP-40, 50 mM Tris-HCl, pH 7.4, 180 mM NaCl, 1 mM EDTA, 1 mM PMSF, 1 mM NaF, 10 mM Na3VO4) for 30 min at 4° C. After centrifuging at 17500 g for 15 min, the supernatants of cell lysate were also collected. Protein concentration of the samples were measured using the bicinchoninic acid (BCA) protein assay kit according to the manufacturer's protocol (Pierce, Rockford, Ill., USA). Equal amount of protein samples of concentrated conditioned medium (100 μg) or cell lysate supernatants (50 μg) were mixed with an appropriate volume of 4×SDS sampling buffer and separated by 8% SDS-PAGE gel. The protein bands separated in the SDS-PAGE gel were blotted onto a polyvinylidene fluoride (PVDF) membrane. The blotted PVDF membrane was washed twice and blocked in freshly prepared Tris-buffered saline (TBS) containing 0.1% Tween-20 and 7% skim milk (TBST) for 2 hours at room temperature. The PVDF membrane was then incubated with either antibodies against collagen I and III or the housekeeping protein α-tubulin (Santa Cruz Biotechnology, Santa Cruz, Calif.) for 18 hours at 4° C. Horseradish peroxidase-conjugated anti-goat antibody was used as secondary antibody. Signals were visualized by an enhanced chemiluminescence kit (Clonetech, Palo Alto, Calif., USA) followed by exposure to X-ray films.

[5] = test system: MMP-13; assay: Western blot of MMP-13 in PMA- or IL-1β-pre-treated SW1353 cells (Example 6); type: cell-based, human; details: 0.1 μM, 48 h
Experimental: as §1
as §2, with “The PVDF membrane was then incubated with either antibodies against collagen I and III or the housekeeping protein α-tubulin (Santa Cruz Biotechnology, Santa Cruz, Calif.) for 18 hours at 4° C.” left out

[6] = test system: MMP-1; assay: Western blot of MMP-1 in pre-treated human chondrocytes (HCHs); type: cell-based; details: 0.1 μM, 48 h
[7] = test system: Type II Collagen; assay: Western blot of Type II Collagen in pre-treated human chondrocytes (HCHs); type: cell-based; details: PMA-pre-treated HCH culture medium; 0.1 μM, 48 h
[8] = test system: MMP-2; assay: Zymography of MMP-2 from pre-treated SW1353 cells; type: cell-based, human; details: PMA-pre-treated SW1353; 0.1 μM, 24 h
Experimental: (§3) At the beginning of the experiment, the cells were pre-treated with 100 ng/mL PMA or 10 ng/mL IL-1β for 24 hours. The cells were then treated with 0.1 μM Dexamethasone, various astragaloside compounds (0.1 μM) or extracts of Astragalus membranaceous (1 μg/mL) at indicated dosages for another 24 hours. For control sample, 0.1% DMSO was used as a negative control for these experiments. The conditioned culture mediums were then centrifuged, 2-fold concentrated and collected for assay of collagens or MMPs secreted into the culture medium.
(§4) The proteolytic activities of MMPs from SW1353 cells were measured essentially as described previously (Circ Res, 1999; 85:906-911). The cells were lysed in lysis buffer (1% Triton X-100, 50 mM Tris-Cl, pH 7.4, 180 mM NaCl, 1 mM EDTA). The samples were measured for their protein concentration using the bicinchoninic acid (BCA) protein assay kit as described. Samples of concentrated conditioned medium and cell lysates were mixed with non-reducing electrophoresis loading buffer and subjected to electrophoresis under non-reducing conditions. The electrophoresis was carried out on a 10% SDS-PAGE co-polymerized with 2 mg/mL gelatin or casein (Sigma, St. Louis, Mo. USA). For zymographic analysis of pro-MMP-2 and activated MMP-2, the total 20 μg of culture medium were used for electrophoresis. Following electrophoresis, renaturation of the proteins was achieved by incubating the gels twice in 25 g/L Triton X-100 at room temperature for 10 min. Subsequently the gels were incubated in 50 mM Tris-HCl, pH 7.5 containing 0.2 M NaCl, 0.02% Brij35 and 10 mM CaCl2 at 37° C. for 18 hours. After the gels were stained with Coomassie Brilliant Blue R-250 and destained, zones of proteolytic activities became visible as transparent bands in the stained gel. In order to obtain higher sensitivity, the gels were further destained in a solution of 1% Triton X-100 (1 to 2 hours). This procedure increased the signal-to-noise ratio, allowing the visualization of faint gelatinase bands at 92 kDa, 125 kDa and greater than 200 kDa. Zymograms were read using a Molecular Dynamics (Sunnyvale, Calif., USA) computing laser densitometer with Image Quant software.

[9] = test system: MMP-9; assay: Zymography of MMP-9 from pre-treated SW1353 cells; type: cell-based, human; details: PMA-pre-treated SW1353; 0.1 μM, 24 h
Experimental: as §3, §4

[10] = test system: MMP-1; assay: Zymography of MMP-1 from pre-treated SW1353 cells; type: cell-based, human; details: PMA-pre-treated SW1353; 0.1 μM, 24 h
Experimental: as §3, §4

[11] = test system: MMP1; details: UO126 10 μM, SP600125 25 μM, SB203580 5 μM, 24 h, then PMA 100 ng/mL 24 h
Experimental: The SW1353 cells were grown at 37° C. in a humidified incubator under 5% CO2 and 95% air in the culture medium as described above. The SW1353 cells were then sub-cultured into 6-well culture plates with serum free medium at an average amount of 2×10^5 cells per well and incubated for 24 hours. Then, the SW1353 cells were treated with 10 μM UO126 (MEK1-specific inhibitor), 25 μM, SP600125 (JNK-specific inhibitor), 5 μM SB203580 (p38-specific inhibitor), or 20 μM LY294002 (PI3K kinase inhibitor), and incubated for another 24 hours. Later, the SW1353 cells were treated with 100 ng/mL PMA and again incubated for 24 hours. Finally, the SW1353 cells were under cell extraction and the cell lysate was used for further luciferase analysis and western blotting analysis.
The SW1353 cells were grown at 37° C. in a humidified incubator under 5% CO2 and 95% air in the culture medium as described above. The SW1353 cells were then sub-cultured into 24-well culture plates and cultured for 24 hours. […] Following cell extraction, the cell lysate was centrifuged at 4° C., 20000 g for 30 minutes and then transferred to a 1.5 ml-microcentrifuge tube. Then, 100 μl buffer A (0.1 mM luciferin) and 350 μl buffer B (1 M MgSO4, 1 M Hepes (pH 7.8), 0.1 M ATP) were added into the microcentrifuge tube. The luciferase activity of final mixture was measured by a luminometer for 30 seconds.

[12] = PMA-pre-treated HCH cell extract
[13] = PMA-pre-treated HCH culture medium
[14] = PMA-pre-treated SW1353 culture medium, 0.1 μM
[15] = PMA-pre-treated SW1353 culture medium
[16] = PMA-pre-treated SW1353 cell extract, 0.1 μM
[17] = PMA-pre-treated SW1353 cell extract

SMILES | glucosamine uptake, Relative fold [1] | proline uptake, Relative fold [2] | MMP-13, Western blot, relative to Ctrl 1.00 [3, 12] | MMP-13, Western blot, relative to Ctrl 1.00 [3, 13] | MMP-1, Western blot, relative to Ctrl 1.00 ([4]; IL-1β-pre-treated SW1353 cell extract, compounds 0.1 μM) | MMP-1, Western blot, relative to Ctrl 1.00 ([4]; IL-1β-pre-treated SW1353 culture medium, 0.1 μM) | MMP-1, Western blot, relative to Ctrl 1.00 [4, 14] | MMP-13, Western blot, relative to Ctrl 1.00 ([5]; IL-1β-pre-treated SW1353 culture medium) | MMP-13, Western blot, relative to Ctrl 1.00 [5, 15] | MMP-1, Western blot, relative to Ctrl 1.00 [6, 12] | MMP-1, Western blot, relative to Ctrl 1.00 [6, 13] | Type II Collagen, Western blot, relative to Ctrl 1.00 [7] | MMP-2, Zymography, relative to Ctrl 1.00 [8] | MMP-9, Zymography, relative to Ctrl 1.00 [9] | MMP-1, Western blot, relative to Ctrl 1.00 [4, 16] | MMP-13, Western blot, relative to Ctrl 1.00 [5, 17] | MMP-1, Zymography, relative to Ctrl 1.00 [10] | luciferase activity (control group 1 fold, PMA-only group 8 fold) [11]
CC(C)(O)C1CC[C@](C)(C2[C@@H](O)C[C@@]3(C)C4C[C@H](OC5OC(CO)C(O)C(O)C5O)C5C(C)(C)[C@@H](O)CCC56CC46CC[C@]23C)O1 (stereo partly drawn) [AA, cycloastragenol 6-O-β-D-glucopyranose] | 1.19 fold | 2.80 fold | 0.44 | 0.49 | 0.74 | 0.76 | 0.52 | 0.93 | 0.84 | 0.44 | 0.44 | 1.42 | – | – | – | – | – | –
CC(=O)O[C@H]1[C@H](O[C@H]2CC[C@]34C[C@]35CC[C@]3(C)[C@@H]([C@@]6(C)CC[C@@H](C(C)(C)O)O6)[C@@H](O)C[C@@]3(C)[C@@H]5C[C@H](O[C@@H]3O[C@H](CO)[C@@H](O)[C@H](O)[C@H]3O)[C@H]4C2(C)C)OC[C@@H](OC(C)=O)[C@@H]1O [IsoAS1, Isoastragaloside I] | 1.16 fold | 2.82 fold | – | – | – | – | 0.77 | – | 1.03 | – | – | – | 1.01 | 0.85 | 0.67 | 1.19 | 0.66 | –
CC(=O)O[C@@H]1[C@@H](O)[C@H](O[C@H]2CC[C@]34C[C@]35CC[C@]3(C)[C@@H]([C@@]6(C)CC[C@@H](C(C)(C)O)O6)[C@@H](O)C[C@@]3(C)[C@@H]5C[C@H](O[C@@H]3O[C@H](CO)[C@@H](O)[C@H](O)[C@H]3O)[C@H]4C2(C)C)OC[C@H]1O [IsoAS2, Isoastragaloside II] | 1.07 fold | 1.61 fold | – | – | – | – | 0.77 | – | 0.80 | – | – | – | 1.04 | 0.95 | 1.28 | 0.60 | 0.95 | –
C[S+]([O-])c1ccc(-c2nc(-c3ccncc3)c(-c3ccc(F)cc3)[nH]2)cc1 (stereo not shown) [SB203580] | – | – | – | – | – | – | – | – | – | – | – | – | – | – | – | – | – | 2 fold
